Results from US20030190368A1, “METHODS OF DIAGNOSIS AND TRIAGE USING CELL ACTIVATION MEASURES” (priority 1998, published 2003).

What was measured:
Assay type in all cases: cell-based
human neutrophils [1] = assay: Lucigenin-enhanced superoxide chemiluminescence of human plasma / isolated neutrophils; conditions: for superoxide chemiluminescence of isolated neutrophils alone (no plasma): neutrophils in PBS, fMLP 10^-6 M, PAF 10^-6, homogenate 1 ml; for chemiluminescence in cell-free plasma: plasma filtered 1 um; for plasma chemiluminescence activation by pancreatic proteases: trypsin 1000 U/ml, chymotrypsin 100 U/ml, 155×10^3 neutrophils/ml plasma
Procedure: Human blood was collected in heparinized Vacutainer tubes (10 ml) and centrifuged at 500 G for 10 minutes. Plasma was collected and 3 ml were mixed with lucigenin (N,N′-dimethyl-9,9′-bisacridinium […]) (Sigma Chemical CO., St. Louis, Mo.) (1 ml of a 1 mM stock solution in deinozed water, final concentration […], near optimal concentration as determined by Ohoi, et al (26)) for each measurement in small petri dishes (60 mm diameter). In later modifications of the test, a 25 mm diameter polyurethane disk was placed inside the petri dishes to reduce the vessel diameter, and subsequently, the reagent requirements to 1 ml plasma mixed with 0.75 ml lucigenin (1 mM stock solution) and only 100 μl of an activator. […] Six Vacutainer tubes were normally collected from healthy volunteers. This volume gives approximately 8 measurements using the original configuration (3 ml plasma/measurement) and up to 25 measurements with the modified system (1 ml/measurement). When measuring whole blood samples, 3 ml of whole blood were subsitituted for 3 ml of plasma.
A standard neutrophil isolation procedure was used as described in Example 2 or pseudopod formation tests. Human blood from healthy volunteers (approximately 60 ml) was collected in heparinized Vacutainer tubes and transferred to a 60 ml syringe where it was sedimented on ice for 40-60 minutes. It is important that heparin and not EDTA ([…]) be used as an antocoagulant, since the calcium-chelating properties of EDTA can suppress neutrophil activation. The neutrophil-rich plasma layer was collected and layered onto 3.5 ml Histopaque (Sigma Diagnostics, St. Louis, Mo.) in 12 ml polypropylene centrifuge tubes (17×100 mm, Falcon, Shrewsbury, Mass.) and centrifuged at 600 G for 20 minutes. The sedimented neutrophils and red blood cells were then gently resuspended in 2 ml PBS (phosphate buffer solution). The resuspeneded cells were carefully layered onto 2.5 ml of a 55% isotonic Percoll solution (Sigma Diagnostics, St. Louis, Mo.) and 2.5 ml of a 74% isotonic Percoll solution in deionized water. This suspension was centrifuged at 600 G for 15 minutes and the middle granulyte layer was removed and resuspended in PBS to achieve a concentration of 10^6 neutrophils/ml.
For standard plasma measurements (e.g., low molecular weight fractions and whole pancreatic homogenates) human blood from healthy volunteers (approximately 60 ml) was collected in heparinized Vacutainer tubes and centrifuged for 10 minutes at 500 g. The plasma layer, including the buffy coat was carefully decanted using a steril transfer pipette. This fraction was then warmed to room temperature and plasma measurements were obtained. Plasma was diluted with sterile saline to achieve a plasma neutrophil concentration of 120×10^3 neutrophil/ml.
For experiments with different plasma concentrations versus neotrophil activators, measurements were made using isolated neutrophils, isolated neutrophils in 10% and 30% autologous plasma, and neutrophil-free plasma (filtered with 1 um filter and verified by cell count).
Cell-free plasma was obtained by filtering sedimented plasma through a 1 um filter (Whatman 6780-2510, Swedesboro, N.J.). The filtered plasma was visually verified to be cell free by placing an aliquot on a microscope slide and examining in detail at 400×. For experiments with different percentages of added plasma, 5 ml total volumes were made consisting of 1 ml lucigenin (1 mM), 1 ml activator, and either 3 ml suspended neutrophils, 2 ml suspended neutrophils plus 1 ml cell-free plasma mixed in PBS necessary for either 10% or 30% total plasma concentration, or 3 ml cell-free plasma. Activators (1 ml) were added via an injection port to the mixture at time t=0 seconds. […]

[2] = tested on: isolated naive human neutrophils; assay: Pseudopod formation test: protease inhibitors against pancreatic homogenate-induced neutrophil activation; conditions: for percent neutrophil pseudopod formation (activation) by rat pancreatic homogenate in presence of protease inhibitor: neutrophils preincubated 10 min with inhibitor (PMSF 1 mM; Complete 1 tablet/20 ml; Benzamidine 1150 μM; Futhan 0.1 mg/ml; aprotinin 20 μM), then homogenate 10 min, homogenate alone 85.1±11.5%
Procedure: (§1) For the pseudopod assay, venous blood is collected in heparinized tubes from healthy human volunteers and put on ice. It is important that heparin and not EDTA ([…]) be used as an anticoagulant, as the calcium-chelating properties of EDTA can affect neutrophil activation. […] Other chemicals for the Krebs-Henseleit buffer are from Fisher Scientific, Fair Lawn, N.J. The resuspended cells are then gently layered onto 2.5 ml of a 55% isotonic Percoll (Sigmal Chemical Company) solution and 2.5 ml of a 74% isotonic Percoll solution in deionized water. The suspension is centrifuged for 15 minutes at 600 G and the middle granulocyte layer is removed and resuspended in PBS to achieve a concentration of 10^6 neutrophils/ml. 100 μl aliquots of suspended neutrophils are added to 100 μl of test plasma or activating agent. This mixture is mixed and then incubated for 10 minutes at 27° C. After incubation 100 μl of 3% glutaraldehyde (Fisher Scientific) is added to stop the reaction. 100 μl of crystal violet in phosphate (pH: 7.4) buffer is then added to stain leukocyte nuclei on wet mount preparations. Freely suspended neutrophils with pseudopodia are identified by their segmented nuclei and the presence of cytoplasmic granules. One hundred neutrophils are counted. Cells with pseudopod projection greater than about 1 um are considered positive.
Rat homogenate was collected as described in detail in Example 5. Briefly, male Wistar rats (250-350 gm) were housed in a controlled environment and maintained on a standard pellet diet for at least three days before initiation of experimental procedures. Animals were cannulated via the femoral arteries and vein under general anesthesia using pentobarbital (50 mg/kg i.m.). The rats were exsanguinated and the heart, liver, spleen, small intestine, and pancreas removed. The organs were immediately washed and cleaned in cold 0.25 M sucrose solution. Then, the cleaned organs were vigorously homogenized in Krebs-Henseleit solution ([…]). Aliquots were filtered by centrifugation at 500 G for 10 min. Pancreatic homogenates were incubated for 2.5 hours at 38° C., stirred frequently. Incubated pancreatic homogenate as well as controls were tested against naive human donor neutrophils for pseudopod formation as described in Example 2.
To determine whether or not neutrophil activation by pancreatic homogenate is protease dependent, the pseudopod formation test was repeated by preincubation of isolated neutrophils with various protease inhibitors (50 μl) for 10 minutes followed by addition of pancreas homogenate (50 μl) and further incubation for 10 minutes. […] All protease inhibitors were the gift of Dr. Tony E. Hugli of The Scripps Clinic and Research Institute, with the exception of Complete™, an all-purpose protease inhibitor purchased from Boehringer Mannheim, Indianapolis, Ind. One of the components of Complete™ is EDTA (ethylenediaminetetra-acetic acid), a standard anti-coagulant and divalent cation chelator.
To determine whether the protease inhibitors were acting on the pancreatic homogenate or the neutrophils themselves, a new set of neutrophil pseudopod experiments was carried out. […] Appropriate controls were recorded as well as a positive control (10^−7 M fMLP) to determine the washed cells' ability to respond to stimuli. Formyl-methionyl-leucyl-phenylalanine (fMLP) was obtained from Sigma Chemical Company, St. Louis, Mo.

human neutrophils [3] = assay: Neutrophil PAF inhibition experiments (pseudopod formation)
[4] = tested on: isolated naive human neutrophils; assay: Pseudopod formation test: neutrophil activation by organ homogenates, fractions and proteases; conditions: for percent pseudopod formation, control solution incubated with the additive alone (no organ homogenate): Krebs-Henseleit control incubated with additive at the same concentration, control activation 10.5±2.5%; for direct neutrophil activation by proteases / zymogen fragments (in words): pseudopod formation
Procedure: as §1
The organ homogenization procedure was similar to the method of Lefer (Glenn et al. (1971) Circ Res 29:338-349, Lefer (1973) Am J. Physiol 224:824-831). Male Wistar rats (250-350 gm) were housed in a controlled environment and maintained on standard pellet diet for at least three days before initiation of experimental procedures. Animals were cannulated via the femoral arteries and vein under general anesthesia using phenobarbital (50 mg/kg i.m.) No heparin was injected other than that needed to ensure open catheter lines (10 U/ml plasma-Lyte). A central incision was made over the abdomen. The rats were exsanguinated and the heart, liver, spleen, small intestine, and pancreas were removed. In two animals a kidney and adrenal gland were removed as well. They were immediately washed and cleaned in cold 0.25 M sucrose solution. The cleaned organs were vigorously homogenized in Krebs-Henseleit solution (1:3 w/v). Homogenate was then further diluted in Krebs-Henseleit solution (1:2 v/v). Aliquots were filtered by centrifugation at 500 G for 10 min and a sample aliquot was stored at 4° C. until assayed. The other fraction was incubated for 2.5 hours at 38° C. with mild stirring and stored at 4° C. until assayed. Incubation of tissue homogenates for this time period at a moderate temperature enhances any enzymatic activity that may be necessary in order to produce a neutrophil activation product. The incubated and non-incubated organ homogenates as well as controls were tested against naive human donor leukocytes for pseudopod formation tests and on whole rat donor blood for the NBT assay. Pseudopod determination was carried out as described in Example 2 using isolated neutrophils in D-PAS combined with homogenate in a 4:1 ratio. Nitroblue tetrazolium reduction by leukocytes due to superoxide in rat homogenate assays was also tested using the NBT procedure described in Example 2, with the application of 25 μl of homogenate to donor blood. The NBT assays for porcine homogenate activity were measured using the slightly modified NBT protocol with the crystal violet stain, also detailed in Example 2. […]

1-O-alkyl-2-acetyl-sn-glycero-3-phosphocholine [PAF]
superoxide chemiluminescence of isolated neutrophils alone (no plasma) (human neutrophils [1]): likewise unreactive
chemiluminescence in cell-free plasma (human neutrophils [1]): unreactive

N=C(N)c1ccccc1 [Benzamidine]
percent neutrophil pseudopod formation (activation) by rat pancreatic homogenate in presence of protease inhibitor [2]: 41.5±24.6%

O=S(=O)(F)Cc1ccccc1 [PMSF, Phenylmethylsulfonyl fluoride]
percent neutrophil pseudopod formation (activation) by rat pancreatic homogenate in presence of protease inhibitor [2]: 40.8±12.9%

Cc1nnc2n1-c1sc3c(c1C(c1ccccc1Cl)=NC2)CC(C(=O)N1CCOCC1)C3 (centres unmarked) [WEB 2170]
reduction of neutrophil activation by pancreatic or trypsin-incubated homogenates (human neutrophils [3]; 5 μM, 50 μM, 500 μM): largely ineffective

CSCC[C@H](NC=O)C(=O)N[C@@H](CC(C)C)C(=O)N[C@@H](Cc1ccccc1)C(=O)O [fMLP, Formyl-methionyl-leucyl-phenylalanine]
percent activation of twice-washed neutrophils by activator ([2]; no inhibitor, pancreatic homogenate 50 μl (Control group) or fMLP 10^-7 M (positive control)): 74%
superoxide chemiluminescence of isolated neutrophils alone (no plasma) (human neutrophils [1]): not particularly reactive
chemiluminescence in cell-free plasma (human neutrophils [1]): unreactive

Phospholipase A2: from bovine pancreas, also degrades PAF
intrinsic effect on neutrophils (human neutrophils [3]; 1, 10, 20 U/ml): neutrophil stimulatory properties

aprotinin
percent neutrophil pseudopod formation (activation) by rat pancreatic homogenate in presence of protease inhibitor [2]: 51±17.2%

chymotrypsin
percent pseudopod formation, control solution incubated with the additive alone (no organ homogenate) [4]: 42%
direct neutrophil activation by proteases / zymogen fragments (in words) [4]: did not result in neutrophil activation
plasma chemiluminescence activation by pancreatic proteases (human neutrophils [1]): little activation

B1: trypsinogen: trypsin precursor from bovine pancreas (protein, UniProt P00760 18-246, looked up)
pro-form: VDDDDKIVGGYTCGANTVPYQVSLNSGYHFCGGSLINSQWVVSAAHCYKSGIQVRLGEDNINVVEGNEQFISASKSIVHPSYNSNTLNNDIMLIKLKSAASLNSRVASISLPTSCASAGTQCLISGWGNTKSSGTSYPDVLKCLKAPILSDSSCKSAYPGQITSNMFCAGYLEGGKDSCQGDSGGPVVCSGKLQGIVSWGSGCAQKNKPGVYTKVCNYVSWIKQTIASN
modifications: pro-form
notes: trypsin precursor from bovine pancreas
direct neutrophil activation by proteases / zymogen fragments (in words) [4]: not stimulatory towards neutrophils

B2: trypsin: serine protease, Type 11-S from porcine pancreas (protein, UniProt P00761 9-231, looked up)
Trypsin: IVGGYTCAANSIPYQVSLNSGSHFCGGSLINSQWVVSAAHCYKSRIQVRLGEHNIDVLEGNEQFINAAKIITHPNFNGNTLDNDIMLIKLSSPATLNSRVATVSLPRSCAAAGTECLISGWGNTKSSGSSYPSLLQCLKAPVLSDSSCKSSYPGQITGNMICVGFLEGGKDSCQGDSGGPVVCNGQLQGIVSWGYGCAQKNKPGVYTKVCNYVNWIQQTIAAN
percent pseudopod formation, control solution incubated with the additive alone (no organ homogenate) [4]: 8.5±0.8%
direct neutrophil activation by proteases / zymogen fragments (in words) [4]: did not result in neutrophil activation
plasma chemiluminescence activation by pancreatic proteases (human neutrophils [1]): little activation
